Measured values as given in ChEMBL document CHEMBL1146488, “Antineoplastic agents. 511. Direct phosphorylation of phenpanstatin and pancratistatin” (J Nat Prod, 2004).
Converted amounts (≈) assume the structure as drawn.

Experiments:
KM-20L2 = assay: Cytotoxicity against human KM20L2 cells; type: functional
MCF7 = assay: Cytotoxicity against human MCF7 cells; type: functional
BXPC-3 = assay: Cytotoxicity against human BxPC3 cells; type: functional
SF-268 = assay: Cytotoxicity against human SF268 cells; type: functional
P388 = assay: Cytotoxicity against mouse P388 cells; type: functional; details: read-out: ED50 (the source's name)
DU-145 = assay: Cytotoxicity against human DU145 cells; type: functional
NCI-H460 = assay: Cytotoxicity against human NCI-H460 cells; type: functional
[1] = Solubility in water; type: physicochemical

SMILES | GI50 (KM-20L2) | GI50 (MCF7) | GI50 (BXPC-3) | GI50 (SF-268) | EC50 (P388) | GI50 (DU-145) | GI50 (NCI-H460) | solubility [1]
O=C1N[C@H]2[C@@H]3OP(=O)([O-])O[C@@H]3[C@@H](O)[C@H](O)[C@@H]2c2cc3c(c(O)c21)OCO3.[Na+] | 3.7 µg/mL | 2.9 µg/mL | 3.3 µg/mL | 2.9 µg/mL | 3.33 µg/mL | 2.3 µg/mL | 3.8 µg/mL | –
C=C[C@H]1CN2CC[C@H]1C[C@H]2[C@H](O)c1ccnc2ccc(OC)cc12.O=C1N[C@H]2[C@H](OP(=O)(O)O)[C@H](O)[C@@H](O)[C@H](O)[C@@H]2c2cc3c(c(O)c21)OCO3 | 0.22 µg/mL | 0.35 µg/mL | 0.23 µg/mL | 0.28 µg/mL | 0.066 µg/mL | 0.15 µg/mL | 0.31 µg/mL | –
O=C1N[C@H]2[C@H](OP(=O)([O-])[O-])[C@H](O)[C@@H](O)[C@H](O)[C@@H]2c2cc3c(c(O)c21)OCO3.[Mg+2] | 0.36 µg/mL | 0.44 µg/mL | 0.4 µg/mL | 0.36 µg/mL | 0.02 µg/mL | 0.22 µg/mL | 0.42 µg/mL | –
O=C1N[C@H]2[C@H](OP(=O)([O-])[O-])[C@H](O)[C@@H](O)[C@H](O)[C@@H]2c2cc3c(c(O)c21)OCO3.[Zn+2] | 0.3 µg/mL | 0.47 µg/mL | 0.27 µg/mL | 0.38 µg/mL | 0.17 µg/mL | 0.17 µg/mL | 0.42 µg/mL | –
O=C1N[C@H]2[C@H](OP(=O)([O-])O)[C@H](O)[C@@H](O)[C@H](O)[C@@H]2c2cc3c(c(O)c21)OCO3.[K+] | 0.3 µg/mL | 0.46 µg/mL | 0.45 µg/mL | 0.39 µg/mL | 0.025 µg/mL | 0.22 µg/mL | 0.4 µg/mL | –
C1CNCCN1.O=C1N[C@H]2[C@H](OP(=O)(O)O)[C@H](O)[C@@H](O)[C@H](O)[C@@H]2c2cc3c(c(O)c21)OCO3 | 0.24 µg/mL | 0.38 µg/mL | 0.31 µg/mL | 0.27 µg/mL | 0.019 µg/mL | 0.21 µg/mL | 0.35 µg/mL | –
C1COCCN1.O=C1N[C@H]2[C@H](OP(=O)(O)O)[C@H](O)[C@@H](O)[C@H](O)[C@@H]2c2cc3c(c(O)c21)OCO3 | 0.37 µg/mL | 0.4 µg/mL | 0.29 µg/mL | 0.38 µg/mL | 0.27 µg/mL | 0.18 µg/mL | 0.46 µg/mL | –
O=C1N[C@H]2[C@H](OP(=O)(O)O)[C@H](O)[C@@H](O)[C@H](O)[C@@H]2c2cc3c(c(O)c21)OCO3.c1c[nH]cn1 | 0.13 µg/mL | 0.33 µg/mL | 0.25 µg/mL | 0.21 µg/mL | 0.063 µg/mL | 0.13 µg/mL | 0.25 µg/mL | –
O=C1N[C@H]2[C@H](O)[C@H](O)[C@@H](O)[C@H](O)[C@@H]2c2cc3c(c(OP(=O)([O-])[O-])c21)OCO3.[Na+].[Na+] | 0.17 µg/mL | 0.2 µg/mL | 0.2 µg/mL | 0.079 µg/mL | 0.24 µg/mL | 0.026 µg/mL | 0.19 µg/mL | 20 µg/mL
O=C1N[C@H]2[C@H](OP(=O)([O-])O)[C@H](O)[C@@H](O)[C@H](O)[C@@H]2c2cc3c(c(O)c21)OCO3.[Na+] | 0.24 µg/mL | 0.18 µg/mL | 0.18 µg/mL | 0.12 µg/mL | 0.018 µg/mL | 0.94 µg/mL | 0.38 µg/mL | –
O=C1N[C@H]2[C@H](OP(=O)([O-])O)[C@H](O)[C@@H](O)[C@H](O)[C@@H]2c2cc3c(c(O)c21)OCO3.[Li+] | 0.25 µg/mL | 0.39 µg/mL | 0.3 µg/mL | 0.28 µg/mL | 0.036 µg/mL | 0.2 µg/mL | 0.35 µg/mL | –
C=C[C@H]1CN2CC[C@H]1C[C@@H]2[C@@H](O)c1ccnc2ccc(OC)cc12.O=C1N[C@H]2[C@H](OP(=O)(O)O)[C@H](O)[C@@H](O)[C@H](O)[C@@H]2c2cc3c(c(O)c21)OCO3 | 0.23 µg/mL | 0.38 µg/mL | 0.34 µg/mL | 0.27 µg/mL | 0.21 µg/mL | 0.2 µg/mL | 0.36 µg/mL | –
O=C1N[C@H]2[C@H](OP(=O)([O-])[O-])[C@H](O)[C@@H](O)[C@H](O)[C@@H]2c2cc3c(c(O)c21)OCO3.[Ca+2] | 0.23 µg/mL | 0.36 µg/mL | 0.25 µg/mL | 0.26 µg/mL | 0.21 µg/mL | 0.12 µg/mL | 0.27 µg/mL | –
O=C(O[C@H]1[C@H](O)[C@H]2OP(=O)([O-])O[C@H]2[C@@H]2NC(=O)c3c(cc4c(c3O)OCO4)[C@H]21)c1ccccc1.[Na+] | 0.13 µg/mL | 0.041 µg/mL | 0.25 µg/mL | 0.17 µg/mL | 0.061 µg/mL | 0.13 µg/mL | 0.029 µg/mL | –
O=C1N[C@H]2[C@H](OP(=O)(O)O)[C@H](O)[C@@H](O)[C@H](O)[C@@H]2c2cc3c(c(O)c21)OCO3 | 0.33 µg/mL (≈ 0.814 µM) | 0.43 µg/mL (≈ 1.06 µM) | 0.36 µg/mL (≈ 0.888 µM) | 0.35 µg/mL (≈ 0.864 µM) | 0.047 µg/mL (≈ 0.116 µM) | 0.2 µg/mL (≈ 0.494 µM) | 0.42 µg/mL (≈ 1.04 µM) | –
O=C1N[C@@H]2C(=C[C@H](O)[C@@H](O)[C@H]2O)c2cc3c(c(O)c21)OCO3 [NARCICLASINE] | 0.0032 µg/mL (≈ 0.0104 µM) | 0.0032 µg/mL (≈ 0.0104 µM) | 0.0035 µg/mL (≈ 0.0114 µM) | 0.0031 µg/mL (≈ 0.0101 µM) | 0.013 µg/mL (≈ 0.0423 µM) | 0.0032 µg/mL (≈ 0.0104 µM) | 0.0084 µg/mL (≈ 0.0273 µM) | –
O=C1N[C@H]2[C@H](O)[C@H](O)[C@@H](O)[C@H](O)[C@@H]2c2cc3c(c(O)c21)OCO3 [PANCRATISTATIN] | 0.025 µg/mL (≈ 0.0769 µM) | 0.023 µg/mL (≈ 0.0707 µM) | 0.02 µg/mL (≈ 0.0615 µM) | 0.014 µg/mL (≈ 0.043 µM) | 0.017 µg/mL (≈ 0.0523 µM) | 0.015 µg/mL (≈ 0.0461 µM) | 0.032 µg/mL (≈ 0.0984 µM) | 53 µg/mL (≈ 163 µM)
O=C(O[C@H]1[C@H](O)[C@@H](O)[C@@H](O)[C@@H]2NC(=O)c3c(cc4c(c3O)OCO4)[C@H]21)c1ccccc1 [PHENPANSTATIN] | 0.00037 µg/mL (≈ 0.000862 µM) | 0.00031 µg/mL (≈ 0.000722 µM) | 0.0019 µg/mL (≈ 0.00442 µM) | 0.00055 µg/mL (≈ 0.00128 µM) | 0.0016 µg/mL (≈ 0.00373 µM) | 0.00021 µg/mL (≈ 0.000489 µM) | 0.0001 µg/mL (≈ 0.000233 µM) | –
O=C1N[C@@H]2C(=C[C@H](O)[C@H]3OP(=O)([O-])O[C@H]32)c2cc3c(c(O)c21)OCO3.[Na+] [SODIUM NARCISTATIN] | 0.06 µg/mL | 0.059 µg/mL | 0.069 µg/mL | 0.047 µg/mL | 0.012 µg/mL | 0.031 µg/mL | 0.058 µg/mL | –
